For one experiment, the system named is HT2-19 cells. The experiment can be described thus: Apoptosis and cell cycle in HT2-19 cells with conditional inactivation of p34^cdc2. The class given is cell-based. The following applies: taxol 0.2 μM. The text has this: Cell Cultures and Antibodies: Breast carcinoma MCF-7, prostate carcinoma PC3, and cervical carcinoma HeLa cells (American Type Culture Collection, Manassas, Va.) were maintained in culture according to the supplier's recommendations. HT2-19 cells with conditional inactivation of the p34^cdc2 gene were described previously (J. E. Itzhaki et al. (1997) Nat. Gen. 15: 258-265). In this cell line, removal of IPTG from the culture medium results in inactivation of the second p34^cdc2 allele (J. E. Itzhaki et al. (1997) Nat. Gen. 15: 258-265). For spindle checkpoint activation, the various cell types were treated with taxol (0.2-2 μM, Sigma Chemical Co., St. Louis, Mo.), vincristine (100 nM, Sigma) or cisplatin (3 μM, Sigma) for 16 h at 37° C. For genetic ablation of p34^cdc2, HT2-19 cells were washed and cultivated in the absence of IPTG for 48-72 h before analysis of apoptosis (see below) or expression of survivin or p34^cdc2, by Western blotting. In some experiments, taxol (0.2 μM) was added to HT2-19 cells simultaneously with the withdrawal of IPTG, and cells were processed as described above. […] For viral transduction, HT2-19 cells in the absence of IPTG were infected with pAd-GFP or pAd-Survivin at multiplicity of infection (m.o.i.) of 50, and analyzed after a 48-72 h culture for changes in cell cycle progression and apoptosis. […]

For another experiment, the system named is HeLa cells. Description: Apoptosis by DNA content analysis and flow cytometry in HeLa cells. The class given is cell-based, human. The following applies: HeLa. The procedure:
Cervical carcinoma HeLa (functionally inactivated p53) cells or breast carcinoma MCF-7 (wild type p53) cells were plated at 50-60% confluency in C-6 wells. Cells were treated with taxol at 0.2 μM for 0 to 32 hours in complete media.
After 4, 8, 16, and 32 hours of incubation, without removing taxol from the wells, purvalanol A was added at three increasing concentrations, 1, 10 and 20 uM (FIG. 1). A control was performed with addition of purvalanol A at the 0-h time point.
The cell populations were harvested at increasing time intervals from the 0-h time point or corresponding to the addition of purvalanol A. Apoptosis was analyzed by DNA content analysis and flow cytometry (DAPI staining).

The subject of experiment [1] is p34^cdc2 kinase activity (MPM-2 epitope) in HeLa cells. Description: MPM-2 mitotic phosphoepitope expression (p34^cdc2 kinase activity) in HeLa cells. The settings on record: HeLa; taxol 0.2 μM, sustained for a 32-h culture. The class given is cell-based, human.
A further experiment relates to survivin promoter. The experiment can be described thus: Survivin promoter-luciferase reporter expression in MCF-7 cells. The class given is cell-based, human. The following applies: taxol 2 μM, all time intervals examined. The procedure: Luciferase activity was determined after 0-24 h incubation at 37° C. on a Lumat luminometer (LB9510), and normalized to β-galactosidase activity used as an internal control.
Luciferase values were normalized to β-galactosidase expression.
On the technique in general: In a reporter assay the amount or activity of a reporter protein is the signal.

Experiment [2] deals with survivin expression in MCF-7 cells. The experiment can be described thus: Survivin expression by Western blotting in MCF-7 cells. The settings on record: taxol 2 μM (FIG. 19A). The class given is cell-based, human. Background: Immunoblotting shows a protein as a band on a membrane.
The subject of another experiment is caspase-9. Description: Caspase-9 processing by Western blotting in HeLa cells. The settings on record: taxol 0.2 μM, Purvalanol A 20 μM or sequential combination, 16 h.
The subject of experiment [3] is survivin RNA in HeLa cells. The experiment can be described thus: Northern hybridization of survivin RNA in HeLa cells. The class given is cell-based, human. The settings on record: presence or absence of taxol.

As to `CC(=O)O[C@H]1C(=O)[C@@]2(C)[C@H]([C@H](OC(=O)c3ccccc3)[C@]3(O)C[C@H](OC(=O)[C@H](O)[C@@H](NC(=O)c4ccccc4)c4ccccc4)C(C)=C1C3(C)C)[C@]1(OC(C)=O)CO[C@@H]1C[C@@H]2O` [taxol, Paclitaxel], the cell cycle arrest result in the experiment with HT2-19 cells (HT2-19, p34^cdc2 +/− (IPTG present)) is reported as “homogeneous mitotic arrest”; in the experiment with HeLa cells (taxol 0.2 μM or purvalanol A 1-20 uM alone (Examples 1, 2)), “uniform M arrest”. Moreover, in the experiment on HT2-19 cells (IPTG− HT2-19 cells (p34^cdc2 −/−)), the “apoptosis vs untreated IPTG− cultures” value is recorded as “considerably increased apoptosis”. In addition, in the experiment on HeLa cells (16 h, taxol 0.2 μM, Purvalanol A 20 μM, alone or sequential), the “cell population with hypodiploid (apoptotic) DNA content / cell death” value is listed as 16%. In addition, the hypodiploid cells in the experiment with HeLa cells (taxol 0.2 μM alone (Example 1)) is ~10%. For the same compound, the “apoptosis (hypodiploid cell fraction)” value with HeLa cells (taxol 0.2 μM for 0 to 32 hours) is “virtually no apoptosis”. Further, in the experiment with HeLa cells (taxol 0.2 μM, up to 32 h (Example 8)), the apoptosis entry is “negligible induction of apoptosis”. Further, the “p34^cdc2 kinase activity” value in experiment [1] was “elevated p34^cdc2 kinase activity”. Moreover, in the experiment with survivin promoter, the “survivin gene expression (promoter-luciferase)” value is listed as “significantly inhibited survivin gene expression”. The “increased expression of survivin” value in experiment [2] is on record as 3-4 fold. Also, the caspase-9 processing result in the experiment on caspase-9 is “did not result in significant caspase-9 cleavage”. For the same compound, the “survivin RNA levels” value in experiment [3] is “no significant changes in survivin RNA levels”.

These data come from patent US6949558B2, “Enhancement of taxane-based chemotherapy by a CDK1 antagonist” (Yale University, priority 2001, dated 2005).
